Columns and labels:
[1] = biological target: DYRK1B (Homo sapiens, UniProt Q9Y463); test: biochemical; details: read-out: % inhibition
[2] = biological target: PIM1 (Homo sapiens, UniProt P11309); test: KinomeScan active site-directed competition binding at […]; […] catalytic inhibition at […] (n = […])

## NC(=O)c1cccc2cn(-c3ccc([C@@H]4CCCNC4)cc3)nc12 [Niraparib]
[1]
  inhibition at 1 µM: 82%

## CNCc1ccc(-c2[nH]c3cc(F)cc4c3c2CCNC4=O)cc1 [Rucaparib]
[2]
  KinomeScan active site-directed competition binding at 10 μM; 27% catalytic inhi: recover most of the previously known off-targets of rucaparib, including the most potent known interactions with PIM1 and DYRK1A

From publication PMC7026418, “The kinase polypharmacology landscape of clinical PARP inhibitors” (Scientific Reports, 2020)
